Results published in patent US11122789B2, “Termite preferred resource compositions and methods” (priority 2015, dated 2021).
Like-named read-outs stand apart in the source and are kept apart here.

Legend:
Assay type in all cases: in vivo
Reticulitermes flavipes [1] = conditions: 10 ppmai; 2 DA-A
Reticulitermes flavipes [2] = conditions: for INSECT ACTIVIIS 0-4: scale 0 death, 4 normal behaviour; for % Mortality: 0.15 % v/v on ground Sabal palm
Description: (§1) Bioassay tubes were loaded with 0.2 g of finely ground Sabal palm materials into microtubes. One mL of dilute active ingredient (described below) was applied to the tube and fully absorbed by the palm materials. The tubes were placed in petri dishes on a 3 mm sand base. Thirty to forty workers and soldiers from the field-collected Reticulitermes and Coptotermes colonies were introduced to the petri dishes. Termite activity was evaluated on a 0-4 scale, with 0 denoting death and 4 indicating normal behaviour. Mortality was recorded weekly for up to 9 weeks, depending on survivorship.

Coptotermes formosanus = conditions: for INSECT ACTIVIIS 0-4: scale 0 death, 4 normal behaviour; for % Mortality: 0.15 % v/v on ground Sabal palm
Description: as §1

[3] = 7.5 ppmai on ground Sabal palm, 5 DA-A
[4] = 75 ppmai on ground Sabal palm, 5 DA-A
[5] = 150 ppmai on ground Sabal palm, 5 DA-A
[6] = 300 ppmai on ground Sabal palm, 5 DA-A

Q: Which results are given for `CNC(=O)c1cc(Cl)cc(C)c1NC(=O)c1cc(Br)nn1-c1ncccc1Cl` [Chlorantraniliprole]?
A: TUNNEL LENGTH (Reticulitermes flavipes [1]): 4 CM; TUNNEL LENGTH (Reticulitermes flavipes [2]; 1 ppmai, 2 DA-A): 4 CM; INSECT ACTIVIIS 0-4 (Reticulitermes flavipes [2]; 1 ppmai, 2 DA-A): 4 0-4; INSECT % MORTAL (Reticulitermes flavipes [2]; 1 ppmai, 7 DA-A): 0.8%; INSECT ACTIVIIS 0-4 (Reticulitermes flavipes [2]; 1 ppmai, 7 DA-A): 4 0-4; INSECT % MORTAL (Reticulitermes flavipes [2]; 1 ppmai, 9 DA-A): 2.4%; INSECT % MORTAL (Reticulitermes flavipes [2]; 1 ppmai, 20 DA-A): 4.1%; INSECT ACTIVIIS 0-4 (Reticulitermes flavipes [2]; 1 ppmai, 20 DA-A): 4 0-4; INSECT ACTIVIIS 0-4 (Reticulitermes flavipes [2]; 10 ppmai, 2 DA-A): 3.3 0-4; INSECT % MORTAL (Reticulitermes flavipes [2]; 10 ppmai, 7 DA-A): 0.2%; INSECT ACTIVIIS 0-4 (Reticulitermes flavipes [2]; 10 ppmai, 7 DA-A): 4 0-4; INSECT % MORTAL (Reticulitermes flavipes [2]; 10 ppmai, 9 DA-A): 0.5%; INSECT % MORTAL (Reticulitermes flavipes [2]; 10 ppmai, 20 DA-A): 4.92%; INSECT ACTIVIIS 0-4 (Reticulitermes flavipes [2]; 10 ppmai, 20 DA-A): 4 0-4; TUNNEL LENGTH (Reticulitermes flavipes [2]; 50 ppmai, 2 DA-A): 2 CM; INSECT ACTIVIIS 0-4 (Reticulitermes flavipes [2]; 50 ppmai, 2 DA-A): 2.3 0-4; INSECT % MORTAL (Reticulitermes flavipes [2]; 50 ppmai, 7 DA-A): 13%; INSECT ACTIVIIS 0-4 (Reticulitermes flavipes [2]; 50 ppmai, 7 DA-A): 2 0-4; INSECT % MORTAL (Reticulitermes flavipes [2]; 50 ppmai, 9 DA-A): 94.7%; INSECT % MORTAL (Reticulitermes flavipes [2]; 50 ppmai, 20 DA-A): 100%; INSECT ACTIVIIS 0-4 (Reticulitermes flavipes [2]; 50 ppmai, 20 DA-A): 0 0-4; TUNNEL LENGTH (Reticulitermes flavipes [2]; 100 ppmai, 2 DA-A): 1 CM; INSECT ACTIVIIS 0-4 (Reticulitermes flavipes [2]; 100 ppmai, 2 DA-A): 1.3 0-4; INSECT % MORTAL (Reticulitermes flavipes [2]; 100 ppmai, 7 DA-A): 15%; INSECT ACTIVIIS 0-4 (Reticulitermes flavipes [2]; 100 ppmai, 7 DA-A): 1 0-4; INSECT % MORTAL (Reticulitermes flavipes [2]; 100 ppmai, 9 DA-A): 100%; INSECT % MORTAL (Reticulitermes flavipes [2]; 100 ppmai, 20 DA-A): 100%; INSECT ACTIVIIS 0-4 (Reticulitermes flavipes [2]; 100 ppmai, 20 DA-A): 0 0-4; TUNNEL LENGTH (Coptotermes formosanus; 1 ppmai, 2 DA-A): 4 CM; INSECT ACTIVIIS 0-4 (Coptotermes formosanus; 1 ppmai, 2 DA-A): 3.3 0-4; INSECT % MORTAL (Coptotermes formosanus; 1 ppmai, 7 DA-A): 5.4%; INSECT ACTIVIIS 0-4 (Coptotermes formosanus; 1 ppmai, 7 DA-A): 3.8 0-4; INSECT % MORTAL (Coptotermes formosanus; 1 ppmai, 9 DA-A): 2.3%; INSECT % MORTAL (Coptotermes formosanus; 1 ppmai, 20 DA-A): 93.4%; INSECT ACTIVIIS 0-4 (Coptotermes formosanus; 1 ppmai, 20 DA-A): 0.5 0-4; TUNNEL LENGTH (Coptotermes formosanus; 10 ppmai, 2 DA-A): 4 CM; INSECT ACTIVIIS 0-4 (Coptotermes formosanus; 10 ppmai, 2 DA-A): 4 0-4; INSECT % MORTAL (Coptotermes formosanus; 10 ppmai, 7 DA-A): 1.3%; INSECT ACTIVIIS 0-4 (Coptotermes formosanus; 10 ppmai, 7 DA-A): 3.3 0-4; INSECT % MORTAL (Coptotermes formosanus; 10 ppmai, 9 DA-A): 1.5%; INSECT % MORTAL (Coptotermes formosanus; 10 ppmai, 20 DA-A): 91.1%; INSECT ACTIVIIS 0-4 (Coptotermes formosanus; 10 ppmai, 20 DA-A): 0.8 0-4; TUNNEL LENGTH (Coptotermes formosanus; 50 ppmai, 2 DA-A): 1 CM; INSECT ACTIVIIS 0-4 (Coptotermes formosanus; 50 ppmai, 2 DA-A): 1.5 0-4; INSECT % MORTAL (Coptotermes formosanus; 50 ppmai, 7 DA-A): 23.2%; INSECT ACTIVIIS 0-4 (Coptotermes formosanus; 50 ppmai, 7 DA-A): 1 0-4; INSECT % MORTAL (Coptotermes formosanus; 50 ppmai, 9 DA-A): 90.8%; INSECT % MORTAL (Coptotermes formosanus; 50 ppmai, 20 DA-A): 100%; INSECT ACTIVIIS 0-4 (Coptotermes formosanus; 50 ppmai, 20 DA-A): 0 0-4; TUNNEL LENGTH (Coptotermes formosanus; 100 ppmai, 2 DA-A): 1.5 CM; INSECT ACTIVIIS 0-4 (Coptotermes formosanus; 100 ppmai, 2 DA-A): 1 0-4; INSECT % MORTAL (Coptotermes formosanus; 100 ppmai, 7 DA-A): 60.5%; INSECT ACTIVIIS 0-4 (Coptotermes formosanus; 100 ppmai, 7 DA-A): 1 0-4; INSECT % MORTAL (Coptotermes formosanus; 100 ppmai, 9 DA-A): 98.3%; INSECT % MORTAL (Coptotermes formosanus; 100 ppmai, 20 DA-A): 100%; INSECT ACTIVIIS 0-4 (Coptotermes formosanus; 100 ppmai, 20 DA-A): 0 0-4

Q: `CNC(=O)c1cc(C#N)cc(C)c1NC(=O)c1cc(Br)nn1-c1ncccc1Cl` [Cyantraniliprole] was tested. Which “% MORT” value (Coptotermes formosanus; 5 ppmai on ground Sabal palm, 5 DA-A) did it give?
A: 0.5%

Q: What about the “% MORT” value (Coptotermes formosanus; 5 ppmai on ground Sabal palm, 11 DA-A) of the same compound?
A: 1.2%

Q: What about the “% MORT” value (Coptotermes formosanus; 5 ppmai on ground Sabal palm, 19 DA-A) of the same compound?
A: 1.2%

Q: And the “% MORT” value (Coptotermes formosanus; 5 ppmai on ground Sabal palm, 37 DA-A)?
A: 1.2%

Q: What about the “% MORT” value (Coptotermes formosanus; 50 ppmai on ground Sabal palm, 5 DA-A) of the same compound?
A: 3.9%

Q: What about the “% MORT” value (Coptotermes formosanus; 50 ppmai on ground Sabal palm, 11 DA-A) of the same compound?
A: 100%

Q: And the “% MORT” value (Coptotermes formosanus; 50 ppmai on ground Sabal palm, 19 DA-A)?
A: 100%

Q: And the “% MORT” value (Coptotermes formosanus; 50 ppmai on ground Sabal palm, 37 DA-A)?
A: 100%

Q: And the “% MORT” value (Coptotermes formosanus; 100 ppmai on ground Sabal palm, 5 DA-A)?
A: 49.3%

Q: And the “% MORT” value (Coptotermes formosanus; 100 ppmai on ground Sabal palm, 11 DA-A)?
A: 100%

Q: What about the “% MORT” value (Coptotermes formosanus; 100 ppmai on ground Sabal palm, 19 DA-A) of the same compound?
A: 100%

Q: And the “% MORT” value (Coptotermes formosanus; 100 ppmai on ground Sabal palm, 37 DA-A)?
A: 100%

Q: What about the “% MORT” value (Coptotermes formosanus; 200 ppmai on ground Sabal palm, 5 DA-A) of the same compound?
A: 80.1%

Q: And the “% MORT” value (Coptotermes formosanus; 200 ppmai on ground Sabal palm, 11 DA-A)?
A: 100%

Q: What about the “% MORT” value (Coptotermes formosanus; 200 ppmai on ground Sabal palm, 19 DA-A) of the same compound?
A: 100%

Q: What about the “% MORT” value (Coptotermes formosanus; 200 ppmai on ground Sabal palm, 37 DA-A) of the same compound?
A: 100%

Q: Which results are given for `COC(=O)N(C(=O)N1CO[C@@]2(C(=O)OC)Cc3cc(Cl)ccc3C2=N1)c1ccc(OC(F)(F)F)cc1` [Indoxacarb]?
A: % MORT (Reticulitermes flavipes [2]; 7.5 ppmai on ground Sabal palm, 3 DA-A): 9.66%; % MORT (Reticulitermes flavipes [2]; [3]): 56.71%; % MORT (Reticulitermes flavipes [2]; 7.5 ppmai on ground Sabal palm, 10 DA-A): 99.79%; % MORT (Reticulitermes flavipes [2]; 75 ppmai on ground Sabal palm, 3 DA-A): 16.59%; % MORT (Reticulitermes flavipes [2]; [4]): 87.91%; % MORT (Reticulitermes flavipes [2]; 75 ppmai on ground Sabal palm, 10 DA-A): 100%; % MORT (Reticulitermes flavipes [2]; 150 ppmai on ground Sabal palm, 3 DA-A): 22.94%; % MORT (Reticulitermes flavipes [2]; [5]): 87.84%; % MORT (Reticulitermes flavipes [2]; 150 ppmai on ground Sabal palm, 10 DA-A): 100%; % MORT (Reticulitermes flavipes [2]; 300 ppmai on ground Sabal palm, 3 DA-A): 47.09%; % MORT (Reticulitermes flavipes [2]; [6]): 98.42%; % MORT (Reticulitermes flavipes [2]; 300 ppmai on ground Sabal palm, 10 DA-A): 100%; % MORT (Coptotermes formosanus; [3]): 0%; % MORT (Coptotermes formosanus; 7.5 ppmai on ground Sabal palm, 7 DA-A): 0%; % MORT (Coptotermes formosanus; 7.5 ppmai on ground Sabal palm, 12 DA-A): 0%; % MORT (Coptotermes formosanus; 7.5 ppmai on ground Sabal palm, 20 DA-A): 2.5%; % MORT (Coptotermes formosanus; 7.5 ppmai on ground Sabal palm, 28 DA-A): 5%; % MORT (Coptotermes formosanus; 7.5 ppmai on ground Sabal palm, 42 DA-A): 90%; % MORT (Coptotermes formosanus; [4]): 0.013%; % MORT (Coptotermes formosanus; 75 ppmai on ground Sabal palm, 7 DA-A): 0.038%; % MORT (Coptotermes formosanus; 75 ppmai on ground Sabal palm, 12 DA-A): 11.68%; % MORT (Coptotermes formosanus; 75 ppmai on ground Sabal palm, 20 DA-A): 35%; % MORT (Coptotermes formosanus; 75 ppmai on ground Sabal palm, 28 DA-A): 93.8%; % MORT (Coptotermes formosanus; 75 ppmai on ground Sabal palm, 42 DA-A): 100%; % MORT (Coptotermes formosanus; [5]): 0%; % MORT (Coptotermes formosanus; 150 ppmai on ground Sabal palm, 7 DA-A): 0.013%; % MORT (Coptotermes formosanus; 150 ppmai on ground Sabal palm, 12 DA-A): 17.48%; % MORT (Coptotermes formosanus; 150 ppmai on ground Sabal palm, 20 DA-A): 37.5%; % MORT (Coptotermes formosanus; 150 ppmai on ground Sabal palm, 28 DA-A): 98.8%; % MORT (Coptotermes formosanus; 150 ppmai on ground Sabal palm, 42 DA-A): 100%; % MORT (Coptotermes formosanus; [6]): 0%; % MORT (Coptotermes formosanus; 300 ppmai on ground Sabal palm, 7 DA-A): 0%; % MORT (Coptotermes formosanus; 300 ppmai on ground Sabal palm, 12 DA-A): 17.5%; % MORT (Coptotermes formosanus; 300 ppmai on ground Sabal palm, 20 DA-A): 93.8%; % MORT (Coptotermes formosanus; 300 ppmai on ground Sabal palm, 28 DA-A): 100%; % MORT (Coptotermes formosanus; 300 ppmai on ground Sabal palm, 42 DA-A): 100%

Q: Which results are given for `O=C(NC(=O)c1c(F)cccc1F)Nc1cc(Cl)c(OC(F)(F)C(F)C(F)(F)F)cc1Cl` (stereo not shown) [Lufenuron]?
A: % Mortality (Reticulitermes flavipes [2]; 4 DA-A): 11.25%; % Mortality (Reticulitermes flavipes [2]; 7 DA-A): 50%; % Mortality (Reticulitermes flavipes [2]; 11 DA-A): 51.25%; % Mortality (Reticulitermes flavipes [2]; 18 DA-A): 51.25%; % Mortality (Reticulitermes flavipes [2]; 25 DA-A): 51.88%; % Mortality (Reticulitermes flavipes [2]; 32 DA-A): 68.75%; % Mortality (Reticulitermes flavipes [2]; 41 DA-A): 70.63%; % Mortality (Reticulitermes flavipes [2]; 53 DA-A): 86.25%; % Mortality (Reticulitermes flavipes [2]; 63 DA-A): 96.25%; % Mortality (Coptotermes formosanus; 4 DA-A): 4.38%; % Mortality (Coptotermes formosanus; 7 DA-A): 7.5%; % Mortality (Coptotermes formosanus; 11 DA-A): 14.38%; % Mortality (Coptotermes formosanus; 18 DA-A): 21.25%; % Mortality (Coptotermes formosanus; 25 DA-A): 45%; % Mortality (Coptotermes formosanus; 32 DA-A): 93.8%; % Mortality (Coptotermes formosanus; 41 DA-A): 100%
